Experimental data taken from US12398110B2, “Second generation inhibitors of mitochondrial permeability transition pore with improved plasma stability” (Oregon Health & Science University, priority 2019, dated 2025).
Like-named read-outs stand apart in the source and are kept apart here.

What was measured:
Format in all cases: biochemical
mtPTP [1] = experiment: Ca2+ overload induced mitochondrial swelling in isolated mouse liver mitochondria; conditions: for mtPTP inhibitory activity (in words): SAR discussion of Table 2
Method: We next sought to evaluate the effects of TR001-13 on mtPTP activity in vitro. This was performed on isolated mitochondria. In isolated mitochondria induction of mtPTP opening leads to mitochondrial swelling due to the oncotic pressure gradient created by matrix proteins >1.5 kDa that cannot diffuse through the open pore. In in vitro experiments, where isolated mitochondria are routinely suspended in sucrose-based isosmotic solutions, the change in mitochondrial size can be measured spectrometrically by detecting the decrease in light scattering at 540 nm.
(§1) Isolation of mitochondria. C57BL6/N mouse liver mitochondria were prepared from 2 to 6 month old male mice by standard differential centrifugation. Mice fed ad libitum were euthanized with CO2 followed cervical dislocation, their livers were existed and placed in a glass beaker containing ice-cold isolation buffer (IB: 0.25 m sucrose, 10 mm Tris-HCl, 0.1 mm EGTA-Tris, pH 7.4) supplemented with fatty acid free bovine serum albumin. Livers were then cut into small pieces with scissors, rinsed with ice-cold IB, and passed through a pre-chilled Potter homogenizer with Teflon pestle. The homogenate (˜30 mL per liver) was transferred to centrifuge tubes, and unbroken cells and nuclei were removed by centrifugation at 700 g for 10 min at 4° C. The supernatant containing mitochondria and other organelles was transferred to new tubes and centrifuged at 6000 g for 10 min at 4° C. The resulting supernatant was discarded and mitochondrial pellet was carefully suspended in ice-cold IB and spun at 9500 g for 5 min at 4° C. The pellet was suspended in IB to give a protein concentration of ˜60-80 mg/mL and stored on ice. Experiments were started immediately and completed within 5 h. Protein concentration was determined by the Biuret method.
Assessment of mitochondrial swelling. Changes in mitochondrial volume of isolated mouse liver mitochondria were followed in a 96-well clear assay plate at a final volume of 0.2 mL and 0.25 mg/mL mitochondrial protein. Absorbance was read for 30 min at 540 nm on a Tecan Infinite F200 plate reader. Activity of test compounds was addressed as follows: First, 0.1 mL of sucrose assay buffer (SAB: 0.250 m sucrose, 10 mm MOPS-Tris, 0.01 mm EGTA-Tris, 1.0 mm phosphoric acid-Tris, 10 mm glutamate and 5 mm malate, pH 7.4) supplemented with twice the CaCl2 concentration required to induce mitochondrial swelling (which was determined for each preparation of mitochondria, typically 50 μm) was dispensed to the assay plate. A set of wells also contained 2.0 mm EGTA (to prevent mitochondrial swelling). The test wells contained a range of concentrations (in 1:2 serial dilutions) of the compounds of interest or 2% DMSO. Experiments were started by the addition of 0.1 mL of mitochondrial suspension (0.5 mg/mL mitochondria in SAB without respiratory substrates) to the assay plates. EC50s±SE were determined with OriginPro software by applying Hill1 function fitting algorithm on average concentration response data of n=3-41 independent preparations.

mtPTP [2] = experiment: Ca2+ retention capacity (CRC) of isolated mouse liver mitochondria
Method: CRC determines the Ca^2+ threshold required for mtPTP activation; inhibitors of mtPTP are expected to increase the Ca^2+ threshold required for mtPTP induction. Extramitochondrial Ca^2+ changes are detected using the membrane-impermeant Ca^2+ indicator, Calcium Green-5N.
as §1
Assessment of Ca^2+ retention capacity (CRC). CRC of isolated mouse liver mitochondria was assessed as follows: First, 0.1 mL of SAB were dispensed to a 96-well black assay plate in the presence of 2% DMSO (control wells) or varying concentrations of test compounds, in 1:2 serial dilutions. Then, 0.1 mL of 0.5 mg/mL mitochondria in SAB devoid of respiratory substrates, but supplemented with 1 μm Calcium Green-5N were added to all wells of the assay plate. A train of 10 μm CaCl2 pulses was added at 2 min intervals, and fluorescence intensity (ex/em 485/535 nm) was read on Tecan Infinite F200 plate reader.

[3] = test system: inner mitochondrial membrane potential; experiment: Rhodamine 123 (Rh123) uptake, mitochondrial membrane potential of isolated mouse liver mitochondria
Source text: We next evaluated the mitochondrial toxicity of the new triazole analogs by testing their ability to interfere with accumulation of the membrane-permeant cationic fluorescent dye rhodamine 123 (Rh123). The mitochondrial uptake of positively charged Rh123 is driven by the inside negative IMM potential, which is built by the respiratory chain or maintained by ATP hydrolysis if certain conditions are met. […] It should be noted, however, that toxicity for these compounds only occurs at ˜10-1000-fold higher concentrations compared to mtPTP inhibition, providing a good therapeutic window.
Assessment of mitochondrial membrane potential. Mitochondrial membrane potential—to evaluate toxicity—of isolated mouse liver mitochondria was assessed based on fluorescence quenching of the cationic fluorescent dye Rh123 upon its accumulation into mitochondrial matrix due to inside negative membrane potential. Compounds that interfere with the build-up or maintenance of IMM potential would shift Rh123 fluorescence to higher values compared to DMSO treated samples. Uncoupler FCCP was used to account for nonspecific fluorescence. First, 0.1 mL of SAB was dispensed to a 96-well black assay plate. A set of wells also contained 0.8 μm FCCP (to prevent Rh123 uptake). The test wells contained a range of concentrations (in 1:2 serial dilutions) of the compounds of interest or 2% DMSO. Then, 0.1 mL of 0.5 mg/mL mitochondria in SAB devoid of respiratory substrates but supplemented with 0.8 μm Rh123 were added to all wells of the assay plate. Fluorescence intensity (ex/em 485/535 nm) was read on a Tecan Infinite F200 plate reader for 7 min and value at 5 min was considered for analysis. EC50s±SE were determined with OriginPro software by applying Hill1 function fitting algorithm on average concentration response data of n=3 independent preparations.

[4] = Mouse Liver Mitochondria (MLM), comparative examples, read-out: Swelling EC50
[5] = Mouse Liver Mitochondria (MLM), comparative examples
[6] = Mouse Liver Mitochondria (MLM), comparative examples, read-out: Rh123 EC50
[7] = isolated mouse liver mitochondria, average ± SEM, n = 3-41, read-out: Mitochondrial Swelling EC50
[8] = compound treated CRC to DMSO treated CRC0 ratio, 1.25 μM, average ± SEM, n = 3-25
[9] = interference with Rh123 uptake to mitochondria, average ± SEM, n = 3, read-out: Rh123 uptake EC50

Row | Structure (SMILES) | EC50 (mtPTP [1]; [4]) [µM] | CRC/CRC0 at 1.25 μM (mtPTP [2]; [5]) | EC50 [3, 6] [µM] | other results
1 | Cc1ccc(Cl)cc1NC(=O)c1cn(-c2ccc(Br)c(O)c2)nn1 [drawing 60] | 0.475 | 2.4 | > 40 | 
2 | Cc1ccc(Cl)cc1NC(=O)c1cn(-c2cc(O)ccc2F)nn1 [drawing 53] | > 20 | 1.4 | > 40 | 
3 | Cc1ccc(Cl)cc1NC(=O)c1cn(-c2cc(O)cc(Cl)c2)nn1 [drawing 69] | 0.028 | 7.3 | > 40 | 
4 | CCOC(=O)Oc1cc(-n2cc(C(=O)Nc3cc(Cl)ccc3C)nn2)ccc1F | 0.581 | 1.8 | > 40 | 
5 | CC(=O)Oc1cc(-n2cc(C(=O)Nc3cc(Cl)ccc3C)nn2)ccc1F | 0.083 | 4.5 | > 40 | 
6 | Cc1ccc(Cl)cc1NC(=O)c1cn(-c2ccc(F)c(O)c2)nn1 [drawing 47] | 4 | 1 | 10 | 
7 | Cc1ccc(Cl)cc1NC(=O)c1cn(-c2cc(F)cc(OC(=O)N(C)C)c2)nn1 | > 20 | 1.5 |  | 
8 | Cc1ccc(Cl)cc1NC(=O)c1cn(-c2ccc(F)c(NS(=O)(=O)C(F)(F)F)c2)nn1 | > 20 | 1 |  | 
9 | Cc1ccc(Cl)cc1NC(=O)c1cn(-c2ccc(F)c(O)c2)nn1 [drawing 46] | 0.025 | 7.4 | > 100 | 
10 | Cc1ccc(Cl)cc1NC(=O)c1cn(-c2cccc(O)c2C)nn1 [TR012, N-(5-chloro-2-methylphenyl)-1-(3-hydroxy-2-methylphenyl)-1H-1,2,3-triazole-4-carboxamide] |  |  |  | mtPTP inhibitory activity (in words) (mtPTP [1]): inactive; EC50 (mtPTP [1]; [7]): 10.6 ± 1.4 µM; CRC/CRC0 at 1.25 μM (mtPTP [2]; [8]): 1.4 ± 0.1; EC50 [3, 9]: > 40 µM
11 | Cc1ccc(Cl)cc1NC(=O)c1cc(-c2ccc(F)c(O)c2)on1 [drawing 45] | 0.002 | 13.5 | > 100 | 
12 | Cc1ccc(Cl)cc1NC(=O)c1cn(-c2cccc(O)c2F)nn1 [TR003, N-(5-chloro-2-methylphenyl)-1-(2-fluoro-3-hydroxyphenyl)-1H-1,2,3-triazole-4-carboxamide] |  |  |  | EC50 (mtPTP [1]; [7]): 0.152 ± 0.036 µM; fold decrease in activity compared to TR001 (mtPTP [1]; mitochondrial swelling, vs TR001): 5 fold; CRC/CRC0 at 1.25 μM (mtPTP [2]; [8]): 7.4 ± 0.5; EC50 [3, 9]: 29.3 ± 3.3 µM
13 | Cc1ccc(Cl)cc1NC(=O)c1cn(-c2ccc(Cl)c(O)c2)nn1 [TR006, N-(5-chloro-2-methylphenyl)-1-(4-chloro-3-hydroxyphenyl)-1H-1,2,3-triazole-4-carboxamide] |  |  |  | mtPTP inhibitory activity (in words) (mtPTP [1]): decreased activity; EC50 (mtPTP [1]; [7]): 0.135 ± 0.015 µM; CRC/CRC0 at 1.25 μM (mtPTP [2]; [8]): 3.9 ± 0.3; EC50 [3, 9]: > 40 µM
14 | C#Cc1ccc(C(C)=O)cc1NC(=O)c1cn(-c2ccc(F)c(O)c2)nn1 | > 20 |  |  | 
15 | Cc1ccc(Cl)cc1NC(=O)c1cn(-c2ccc(Br)c(NS(C)(=O)=O)c2)nn1 | > 20 | 1 |  | 
16 | Cc1ccc(Cl)cc1NC(=O)c1cn(-c2ccc(C)c(O)c2Cl)nn1 [drawing 66] | > 20 | 1 | > 40 | 
17 | Cc1ccc(Cl)cc1NC(=O)c1cn(-c2cc(O)cc(Cl)c2)nn1 [TR008, N-(5-chloro-2-methylphenyl)-1-(3-chloro-5-hydroxyphenyl)-1H-1,2,3-triazole-4-carboxamide] |  |  |  | EC50 (mtPTP [1]; [7]): 0.028 ± 0.005 µM; fold decrease in activity compared to TR002 (mtPTP [1]; mitochondrial swelling, vs TR002): 2 fold; CRC/CRC0 at 1.25 μM (mtPTP [2]; [8]): 7.3 ± 1.1; EC50 [3, 9]: > 40 µM
18 | Cc1c(Cl)cccc1NC(=O)c1cn(-c2ccc(F)c(O)c2)nn1 | 0.0051 | 5.4 | > 40 | 
19 | Cc1ccc(Cl)cc1NC(=O)c1cn(-c2ccc(F)c(O)c2F)nn1 [drawing 58] | 0.782 | 2.6 | > 40 | 
20 | Cc1ccc(Cl)cc1NC(=O)c1cn(-c2ccc(F)c(O)c2F)nn1 [TR005] |  |  |  | mtPTP inhibitory activity (in words) (mtPTP [1]): decreased activity; EC50 (mtPTP [1]; [7]): 0.782 ± 0.114 µM; CRC/CRC0 at 1.25 μM (mtPTP [2]; [8]): 2.6 ± 0.2; EC50 [3, 9]: > 40 µM
21 | Cc1ccc(-n2cc(C(=O)Nc3cc(Cl)ccc3C)nn2)cc1O [drawing 67] | > 20 | 1.4 | > 40 | 
22 | Cc1ccc(Cl)cc1NC(=O)c1cn(-c2ccc(Cl)c(O)c2)nn1 [drawing 59] | 0.135 | 3.9 | > 40 | 
23 | CC(=O)Nc1cc(-n2cc(C(=O)Nc3cc(Cl)ccc3C)nn2)ccc1F | > 20 | 1 |  | 
24 | Cc1ccc(Cl)cc1NC(=O)c1cn(-c2ccc(F)c(OC(=O)N(C)C)c2)nn1 | 0.153 | 3.9 |  | 
25 | Cc1ccc(Cl)cc1NC(=O)c1cn(-c2ccc3[nH]c(=O)[nH]c3c2)nn1 | > 20 | 1 |  | 
26 | Cc1ccc(Cl)cc1NC(=O)c1cn(-c2ccc(F)c(N)c2)nn1 | > 20 | 1 |  | 
27 | Cc1ccc(Cl)cc1NC(=O)c1cn(-c2cccc(C(=O)O)c2)nn1 | > 20 | 1 |  | 
28 | Cc1ccc(Cl)cc1NC(=O)c1cn(-c2ccc(F)c(NC(=O)C(F)(F)F)c2)nn1 | > 20 | 1 |  | 
